Among the test systems are SK-MEL-28; CCRF-CEM; NCI-H460; HOP-92; LOX IMVI; Malme-3M; OVCAR-3; KM12; A498; NCI-H23; ACHN; HCC 2998; MOLT-4; MCF7; SF-539; SR; UO-31; OVCAR-4; SW-620; MDA-MB-435.
Holding throughout (experiment): NCI tumour cell line growth inhibition, 48 h

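Grown in 96-well plates, cells were treated for 48 hours with each compound at five concentrations. Insufficient inhibition: endpoint recorded as highest concentration tested. Abbreviation: GI50, concentration required for 50% inhibition of growth.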 Calls of active or inactive are those of the source. Rule as the data show it: active = GI50 up to about 1.1 µM and inactive = higher. A value given as a limit tells only on which side of the number the result lay.

For `CCOC(=O)NC(C(=O)OCC)(N1CCN(c2cc3c(cc2F)c(=O)c(C(=O)O)cn3CC)CC1)C(F)(F)F` (stereo not given), the GI50 in the assay with SK-MEL-28 is 0.197 µM (active); in the assay with CCRF-CEM, > 100 µM (inactive); in the assay on NCI-H460, > 100 µM (inactive); in the assay on HOP-92 it was > 100 µM (inactive); in the assay with LOX IMVI, > 100 µM (inactive); in the assay with Malme-3M, > 100 µM (inactive). The GI50 in the assay on OVCAR-3, with KM12, in the assay on A498, in the assay on NCI-H23, in the assay with ACHN and with HCC 2998 was > 100 µM (inactive) throughout. In addition, the GI50 in the assay on MOLT-4, with MCF7, with SF-539, in the assay with SR, in the assay with UO-31 and with OVCAR-4 was > 100 µM (inactive) each time. For the same compound, the GI50 is > 100 µM (inactive) in the assay with SW-620 and 26.1 µM (inactive) in the assay on MDA-MB-435.

As for `NCCCN1c2ccccc2Sc2ccc(Cl)cc21`, the GI50 with SK-MEL-28 was > 5.85 µM (inactive); with CCRF-CEM, 3.19 µM (inactive); with NCI-H460, 3.33 µM (inactive); in the assay with HOP-92, > 10 µM (inactive); in the assay with LOX IMVI, 3.29 µM (inactive); with Malme-3M, 6.97 µM (inactive). Besides, the GI50 was 5.3 µM (inactive) in the assay with OVCAR-3; 2.51 µM (inactive) with KM12; > 10 µM (inactive) in the assay with A498; > 10 µM (inactive) in the assay with NCI-H23; 6.18 µM (inactive) in the assay with ACHN; 2.12 µM (inactive) in the assay on HCC 2998. In addition, the GI50 in the assay on MOLT-4 was 2.88 µM (inactive); in the assay with MCF7 it was 1.76 µM (inactive); in the assay with SF-539 it was 5.22 µM (inactive); in the assay with SR, 2.18 µM (inactive); with UO-31 it was 7.8 µM (inactive); in the assay on OVCAR-4, > 10 µM (inactive). The values for the GI50 in the assay on SW-620 and in the assay on MDA-MB-435 were 2.9 µM (inactive) and 1.93 µM (inactive), respectively.

`COc1cc(/C=C/c2sc3ccccc3[n+]2C)ccc1N(C)C`: the GI50 in the assay on SK-MEL-28 was 8.2 µM (inactive); in the assay on CCRF-CEM it was 2.06 µM (inactive); in the assay on NCI-H460 it was 6.11 µM (inactive); in the assay on HOP-92 it was 1.85 µM (inactive); with LOX IMVI it was 15.8 µM (inactive); in the assay with Malme-3M, 2.49 µM (inactive). For the same compound, the GI50 in the assay with OVCAR-3 was 2.23 µM (inactive); in the assay on KM12, 3.62 µM (inactive); in the assay with A498, 44 µM (inactive); in the assay with NCI-H23 it was 11.5 µM (inactive); in the assay on ACHN it was 11.1 µM (inactive); in the assay on HCC 2998, 21.8 µM (inactive). Moreover, the GI50 in the assay with MOLT-4 was 4.55 µM (inactive); in the assay on MCF7, 4.45 µM (inactive); with SF-539 it was 17.3 µM (inactive); in the assay on SR it was 1.94 µM (inactive); in the assay with UO-31 it was < 0.01 µM (active); in the assay with OVCAR-4, 1.33 µM (inactive). Moreover, the GI50 was 5.07 µM (inactive) in the assay with SW-620 and 3.32 µM (inactive) in the assay on MDA-MB-435.

As for `COc1cccc2c(=O)oc(-c3ccccc3C)nc12`, the GI50 with SK-MEL-28 is 29.3 µM (inactive); in the assay with CCRF-CEM it was 25.9 µM (inactive); in the assay on NCI-H460, 56.9 µM (inactive); with HOP-92 it was > 100 µM (inactive); in the assay on LOX IMVI, 18.3 µM (inactive); in the assay on Malme-3M, 42.2 µM (inactive). In addition, the GI50 in the assay on OVCAR-3 was 29 µM (inactive); in the assay with KM12, 38 µM (inactive); in the assay with A498, > 100 µM (inactive); with NCI-H23 it was 61.4 µM (inactive); in the assay with ACHN, 43 µM (inactive); with HCC 2998, 35 µM (inactive). The GI50 with MOLT-4 was 26.7 µM (inactive); in the assay on MCF7 it was 33.7 µM (inactive); in the assay on SF-539 it was 25.5 µM (inactive); in the assay with SR it was 49.4 µM (inactive); with UO-31, 58.3 µM (inactive); in the assay with OVCAR-4, 22.7 µM (inactive). The GI50 in the assay with SW-620 is 40.6 µM (inactive); in the assay on MDA-MB-435 it was 33.6 µM (inactive).

Values taken from ChEMBL document CHEMBL1201862, “PubChem BioAssay data set” (2004).
